From PubChem BioAssay AID248 (DTP/NCI, 2004)
Where “and” joins values, the source holds several entries; their conditions need not be identical. Identical values can stand only once. Inconclusive results and toxic doses are left out.

Test system: L1210 leukemia ip in BDF1 mice, survival T/C
Experiment: NCI In Vivo Anticancer Drug Screen. Data for tumor model L1210 Leukemia (intraperitoneal) in B6D2F1 (BDF1) mice
Conditions: endpoint: mean survival time, higher = longer survival
Outline: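 Survival endpoint. Drug-treated group vs vehicle group, expressed as T divided by C. Tumor passaged by transplantation.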

[1] = dose: 50.0 mg/kg/injection, schedule: Q01DX009 (ip), vehicle: Klucel (hydroxypropylcellulose) (HPC)
[2] = dose: 100.0 mg/kg/injection, schedule: Q01DX009 (ip), vehicle: Klucel (hydroxypropylcellulose) (HPC)
[3] = dose: 100.0 mg/kg/injection, schedule: Q04DX003 (ip), vehicle: Klucel (hydroxypropylcellulose) (HPC)
[4] = dose: 200.0 mg/kg/injection, schedule: Q04DX003 (ip), vehicle: Klucel (hydroxypropylcellulose) (HPC)
[5] = dose: 400.0 mg/kg/injection, schedule: Q04DX003 (ip), vehicle: Klucel (hydroxypropylcellulose) (HPC)
[6] = dose: 50.0 mg/kg/injection, schedule: Q01DX001 (ip), vehicle: saline
[7] = dose: 100.0 mg/kg/injection, schedule: Q01DX001 (ip), vehicle: saline
[8] = dose: 200.0 mg/kg/injection, schedule: Q01DX001 (ip), vehicle: saline
[9] = dose: 200.0 mg/kg/injection, schedule: Q04DX002 (ip), vehicle: saline with Tween-80
[10] = dose: 100.0 mg/kg/injection, schedule: Q01DX009 (ip), vehicle: saline
[11] = dose: 50.0 mg/kg/injection, schedule: Q01DX009 (ip), vehicle: saline
[12] = dose: 200.0 mg/kg/injection, schedule: Q04DX003 (ip), vehicle: saline
[13] = dose: 200.0 mg/kg/injection, schedule: Q01DX009 (ip), vehicle: Klucel (hydroxypropylcellulose) (HPC)
[14] = dose: 400.0 mg/kg/injection, schedule: Q01DX009 (ip), vehicle: Klucel (hydroxypropylcellulose) (HPC)
[15] = dose: 300.0 mg/kg/injection, schedule: Q04DX003 (ip), vehicle: saline

Which T/C (dose: 25.0 mg/kg/injection, schedule: Q01DX009 (ip), vehicle: Klucel (hydroxypropylcellulose) (HPC)) does the source give for `CC(C)NNC(=O)c1ccc(Cl)cc1` here?
The T/C was 92 % of control.

And the T/C (dose: 25.0 mg/kg/injection, schedule: Q04DX003 (ip), vehicle: Klucel (hydroxypropylcellulose) (HPC))?
The T/C was 96 % of control.

And the T/C [1]?
Its T/C is 93 % of control.

And the T/C (dose: 50.0 mg/kg/injection, schedule: Q04DX003 (ip), vehicle: Klucel (hydroxypropylcellulose) (HPC))?
Its T/C is 89 % of control.

And the T/C [2]?
Its T/C is 103 % of control.

And the T/C (dose: 100.0 mg/kg/injection, schedule: Q01DX009 (ip), vehicle: saline with Tween-80)?
The T/C was 88 % of control.

What about the T/C [3] of the same compound?
Its T/C is 94 % of control.

And the T/C (dose: 200.0 mg/kg/injection, schedule: Q01DX009 (ip), vehicle: saline with Tween-80)?
The T/C was 98 % of control.

What about the T/C [4] of the same compound?
Its T/C is 86 % of control.

And the T/C (dose: 400.0 mg/kg/injection, schedule: Q01DX009 (ip), vehicle: saline with Tween-80)?
Its T/C is 90 % of control.

What about the T/C [5] of the same compound?
The T/C was 102 % of control.

With `CC(C)(C)C1CCCC(=O)CC1` (stereo not given) as the compound, how does the T/C [6] read?
The T/C was 102 % of control.

Which T/C [7] does the source give for `Nc1nc(=O)[nH]nc1SCc1ccccc1` here?
The T/C was 104 % of control.

And the T/C [8]?
The T/C was 98 % of control.

What about the T/C (dose: 400.0 mg/kg/injection, schedule: Q01DX001 (ip), vehicle: saline) of the same compound?
The T/C was 98 % of control.

With `Cc1ccc(S(=O)(=O)OCC(C)([N+](=O)[O-])[N+](=O)[O-])cc1` as the compound, how does the T/C (dose: 100.0 mg/kg/injection, schedule: Q04DX002 (ip), vehicle: saline with Tween-80) read?
The T/C was 94 % of control.

What about the T/C [9] of the same compound?
The T/C was 97 % of control.

What about the T/C (dose: 400.0 mg/kg/injection, schedule: Q04DX002 (ip), vehicle: saline with Tween-80) of the same compound?
Its T/C is 101 % of control.

For `Cc1c[n+]([O-])ccc1N=NN(C)c1ccccc1C`, which T/C (dose: 18.75 mg/kg/injection, schedule: Q04DX002 (ip), vehicle: saline with Tween-80) is on record?
Its T/C is 102 % of control.

What about the T/C (dose: 37.5 mg/kg/injection, schedule: Q04DX002 (ip), vehicle: saline with Tween-80) of the same compound?
Its T/C is 105 % of control.

What about the T/C (dose: 75.0 mg/kg/injection, schedule: Q04DX002 (ip), vehicle: saline with Tween-80) of the same compound?
The T/C was 102 % of control.

What about the T/C [9] of the same compound?
Its T/C is 86 % of control.

`CC(C)=NNC(=O)NO` was tested. Which T/C (dose: 75.0 mg/kg/injection, schedule: Q01DX001 (ip), vehicle: saline) did it give?
The T/C was 102 % of control.

How did the T/C [7] turn out when `Nc1ncnc2c1ncn2[C@H]1CC[C@@H](CO)C1` was run?
Its T/C is 106 % of control.

What about the T/C [8] of the same compound?
Its T/C is 97 % of control.

How did the T/C (dose: 0.8 mg/kg/injection, schedule: Q01DX009 (ip), vehicle: saline) turn out when `CC1(C)N=C(N)N=C(N)N1c1ccc(CC(=O)Nc2ccc(S(=O)(=O)F)cc2)cc1` was run?
Its T/C is 95 % of control.

What about the T/C (dose: 4.0 mg/kg/injection, schedule: Q01DX009 (ip), vehicle: saline) of the same compound?
The T/C was 95 % of control.

What about the T/C (dose: 20.0 mg/kg/injection, schedule: Q01DX009 (ip), vehicle: saline) of the same compound?
The T/C was 97 % of control.

What about the T/C [10] of the same compound?
Its T/C is 97 % of control.

What about the T/C (dose: 500.0 mg/kg/injection, schedule: Q01DX009 (ip), vehicle: saline) of the same compound?
Its T/C is 94 % of control.

`CCO/C=C/C(=O)NC(=O)NC1CC(O)C(CO)C1` (stereo not given) was tested. Which T/C [11] did it give?
The T/C was 104 % of control.

And the T/C [10]?
Its T/C is 107 % of control.

What about the T/C (dose: 200.0 mg/kg/injection, schedule: Q01DX009 (ip), vehicle: saline) of the same compound?
The T/C was 93 % of control.

Which T/C (dose: 25.0 mg/kg/injection, schedule: Q01DX009 (ip), vehicle: saline) does the source give for `CSc1sc2ccccc2[n+]1C` here?
The T/C was 102 % of control.

And the T/C [11]?
The T/C was 96 % of control and 108 % of control.

What about the T/C (dose: 100.0 mg/kg/injection, schedule: Q04DX003 (ip), vehicle: saline) of the same compound?
The T/C was 97 % of control.

And the T/C [12]?
Its T/C is 113 % of control.

With `CN(C)CCCN(C)CCCCN(C)CCCN(C)C` as the compound, how does the T/C [7] read?
Its T/C is 96 % of control.

For `CCOc1ccc2nc(/C=C/c3ccc(N(C)C)cc3)ccc2c1`, which T/C [1] is on record?
Its T/C is 94 % of control.

And the T/C [2]?
Its T/C is 94 % of control.

And the T/C [13]?
Its T/C is 92 % of control.

What about the T/C [14] of the same compound?
Its T/C is 100 % of control.

`Cc1cccc2c(C(=O)O)cc(-c3ccc(Cl)cc3)nc12` was tested. Which T/C (dose: 50.0 mg/kg/injection, schedule: Q01DX009 (ip), vehicle: saline with Tween-80) did it give?
Its T/C is 91 % of control.

Which T/C (dose: 100.0 mg/kg/injection, schedule: Q01DX001 (ip), vehicle: water) does the source give for `COc1ccc(CC(=O)N(CCNS(=O)(=O)c2ccc(C)cc2)CCOC(C)=O)cc1` here?
The T/C was 104 % of control.

And the T/C (dose: 200.0 mg/kg/injection, schedule: Q01DX001 (ip), vehicle: water)?
The T/C was 107 % of control.

And the T/C (dose: 400.0 mg/kg/injection, schedule: Q01DX001 (ip), vehicle: water)?
The T/C was 96 % of control.

`COc1ccc(C=Nc2ccc(OC(C)=O)cc2)cc1` was tested. Which T/C (dose: 176.0 mg/kg/injection, schedule: Q01DX009 (ip), vehicle: other) did it give?
Its T/C is 105 % of control.

What about the T/C (dose: 264.0 mg/kg/injection, schedule: Q01DX009 (ip), vehicle: other) of the same compound?
Its T/C is 120 % of control.

`CNCCC(=O)c1ccccc1` was tested. Which T/C [3] did it give?
Its T/C is 99 % of control.

What about the T/C [4] of the same compound?
The T/C was 99 % of control.

What does the source list for `CC1(CNC(=O)C(=O)NCC2(C)CO2)CO1` (stereo not given)?
T/C (dose: 15.0 mg/kg/injection, schedule: Q01DX009 (ip), vehicle: acetone): 98 % of control; T/C (dose: 23.0 mg/kg/injection, schedule: Q01DX009 (ip), vehicle: acetone): 98 % of control; T/C (dose: 25.0 mg/kg/injection, schedule: Q01DX Z (ip), vehicle: saline): 121 % of control; T/C (dose: 40.0 mg/kg/injection, schedule: Q01DX Z (ip), vehicle: other): 120 % of control; T/C [6]: 101 % of control; T/C [11]: 124 % of control; T/C (dose: 50.0 mg/kg/injection, schedule: Q01DX Z (ip), vehicle: saline): 116 % of control; T/C (dose: 50.0 mg/kg/injection, schedule: Q04DX003 (ip), vehicle: saline): 124 % of control; T/C (dose: 100.0 mg/kg/injection, schedule: Q01DX001 (ip), vehicle: acetone): 123 % of control; T/C [7]: 110 % of control and 113 % of control; T/C [10]: 150 % of control; T/C (dose: 100.0 mg/kg/injection, schedule: Q01DX Z (ip), vehicle: other): 96 % of control; T/C (dose: 132.0 mg/kg/injection, schedule: Q04DX003 (ip), vehicle: saline): 117 % of control; T/C (dose: 150.0 mg/kg/injection, schedule: Q01DX009 (ip), vehicle: saline): 157 % of control and 163 % of control; T/C (dose: 150.0 mg/kg/injection, schedule: Q01DX Z (ip), vehicle: carboxymethylcellulose (CMC)): 121 % of control; T/C (dose: 200.0 mg/kg/injection, schedule: Q01DX001 (ip), vehicle: acetone): 119 % of control; T/C [8]: 120 % of control; T/C [12]: 157 % of control and 166 % of control; T/C (dose: 225.0 mg/kg/injection, schedule: Q01DX009 (ip), vehicle: saline): 180 % of control; T/C (dose: 225.0 mg/kg/injection, schedule: Q01DX Z (ip), vehicle: carboxymethylcellulose (CMC)): 96 % of control; T/C (dose: 300.0 mg/kg/injection, schedule: Q01DX009 (ip), vehicle: saline): 94 % of control; T/C [15]: 158 % of control and 189 % of control; T/C (dose: 338.0 mg/kg/injection, schedule: Q01DX Z (ip), vehicle: other): 106 % of control; T/C (dose: 400.0 mg/kg/injection, schedule: Q01DX001 (ip), vehicle: acetone): 204 % of control

How did the T/C (dose: 75.0 mg/kg/injection, schedule: Q01DX009 (ip), vehicle: Klucel (hydroxypropylcellulose) (HPC)) turn out when `CCOC(=O)CCCl` was run?
Its T/C is 94 % of control.

What about the T/C (dose: 75.0 mg/kg/injection, schedule: Q04DX003 (ip), vehicle: saline) of the same compound?
Its T/C is 117 % of control.

What about the T/C (dose: 150.0 mg/kg/injection, schedule: Q01DX009 (ip), vehicle: Klucel (hydroxypropylcellulose) (HPC)) of the same compound?
The T/C was 96 % of control.

What about the T/C (dose: 300.0 mg/kg/injection, schedule: Q01DX009 (ip), vehicle: Klucel (hydroxypropylcellulose) (HPC)) of the same compound?
The T/C was 97 % of control.

And the T/C [15]?
Its T/C is 97 % of control.

Which results are given for `COc1ccc(CCC(C)=O)cc1`?
T/C [2]: 96 % of control; T/C [3]: 89 % of control; T/C [13]: 105 % of control; T/C [4]: 102 % of control; T/C [14]: 96 % of control; T/C [5]: 98 % of control

For `COC(=O)c1cc(C)cc(N2c3ccccc3-c3cc(C)ccc3S2(=O)=O)c1C`, which T/C (dose: 100.0 mg/kg/injection, schedule: Q01DX001 (ip), vehicle: carboxymethylcellulose (CMC)) is on record?
The T/C was 104 % of control.

And the T/C (dose: 200.0 mg/kg/injection, schedule: Q01DX001 (ip), vehicle: carboxymethylcellulose (CMC))?
The T/C was 102 % of control.

And the T/C (dose: 400.0 mg/kg/injection, schedule: Q01DX001 (ip), vehicle: carboxymethylcellulose (CMC))?
Its T/C is 96 % of control.

With `Cc1ccc(N=Nc2c(N)ccc3ccccc23)cc1` as the compound, how does the T/C (dose: 100.0 mg/kg/injection, schedule: Q01DX001 (ip), vehicle: other) read?
Its T/C is 100 % of control.

And the T/C (dose: 200.0 mg/kg/injection, schedule: Q01DX001 (ip), vehicle: other)?
Its T/C is 100 % of control.
